The values below come from publication PMC2875737, “Determination of drug-like properties of a novel antileishmanial compound: In vitro absorption, distribution, metabolism, and excretion studies” (Indian Journal of Pharmacology, 2009).

For series [1], the system named is Leishmania donovani. The following applies: cited from earlier work.
Series [2] can be described thus: Plasma protein binding by equilibrium dialysis. The conditions noted are these: human. As to the method:
The binding of compound to human plasma was determined using equilibrium dialysis with 6-hour incubation with constant shaking at 37°C as per the method described by Kaplita and Liu.[4] The initial concentration of the compound used was 10 μM (DMSO ≤1%). Quantitations were done by HPLC.
On the technique in general: In equilibrium dialysis free small molecules cross a membrane that holds back macromolecules.

Series [3] has as its system human plasma protein. The arrangement: method as in PMID 14567798, PMID 11841071. The following applies: cited from earlier work.
Series [4] is described as follows: physchem. The conditions noted are these: for solubility at 2 h: 25 °C, pH 7.4, aqueous buffer, kinetic from dmso stock. As to the method: A 4 μl of 25 mM stock (DMSO) of S-4 was diluted to 200 μl with PBS (pH 7.4) and incubated at 25°C for 2 hours with constant shaking. The undissolved compound, if any, was filtered through the PVDF membrane filter (Millipore, MA). To 120 μl of the filtrate, 80 μl of acetonitrile was added and mixed thoroughly. The concentration of S-4 in the filtrate was determined spectrophotometrically from linearity (5-400μM) of the compound prepared in PBS containing 40% acetonitrile. The observed solubility result was multiplied by 200/120 to account for the acetonitrile addition in the test filtrate.

On the set-up of series [5]: method as in PMID 14567798, PMID 11841071. The conditions noted are these: PBS pH 7.4; cited from earlier work.
Series [6] is described as follows: Distribution coefficient Log D in cyclohexane/PBS pH 7.4. The format is physicochemical. The following applies: PBS pH 7.4, average of three experiments. As to the method: Log D in cyclohexane/PBS was performed following the similar method as done for Log D in octanol/PBS. Here, 5 mM compound stock was used to prevent precipitation problem with this system and volumes of cyclohexane were 150, 200, 400, and 800 μl.

For series [7] the following is noted: cited from earlier work.
The conditions of series [8]: PAMPA standards; cited from earlier work. For orientation: In PAMPA a lipid-coated filter parts donor from acceptor wells.
The nature of series [9]: Distribution coefficient (Log D) in octanol/PBS pH 7.4.
On the set-up of series [10]: method as in PMID 14567798, PMID 11841071. The following applies: cited from earlier work.
Details of series [11]: method as in ref 11 = [11]; PMID 11937327; doi:10.1016/s0968-0896(02)00046-9; 11 Sahu NP Pal C Mandal NB Banerjee S Raha M Kundu AP Synthesis of a novel quinoline derivative, 2-(2-Methylquinolin-4ylamino)-N-phenylacetamide: A potential antileishmanial agent Bioorg Med Chem 2002. The conditions noted are these: cited from earlier work.
For series [12], the system named is rat liver microsomes. As to the kind of experiment: Metabolism by liver microsomal enzymes. It is filed as in vitro ADME. The following applies: rat liver microsomes 0.5 mg protein/ml, 10 μM, 1 hour, 37°C, NADPH regeneration system; ± SEM. As to the method:
Ethical clearance was obtained from Animal Ethics Committee of Indian Institute of Chemical Biology for use of animals for the present study. […] The % stability (% compound remaining after metabolism) was calculated as follows:
(3) % Compound remaining=100×(peak area of 1 hour sampl/peak area of 0 hour sample)
For 0 hour sample, the compound was added after addition of ice-cold acetonitrile and then vortexed, followed by centrifugation as mentioned above.
A general note: Liver microsomes are vesicles of endoplasmic reticulum, rich in cytochrome P450 enzymes.

Series [13] in a line: Chemical stability in PBS pH 7.4, simulated gastric fluid and simulated intestinal fluid. The format is physicochemical. The procedure:
A 100-μM solution of S-4 was prepared in phosphate buffered saline (PBS), pH 7.4, from a stock of 25 mM in DMSO and was kept at 25°C for 24 hours. Percentage stability was determined based on chromatographic peak area of the sample kept for 24 hours and that of 0 hour (freshly prepared and injected) sample. All the samples were prepared in triplicate.
Similar studies were carried out at 37°C replacing PBS with simulated gastric fluid (SGF) and simulated intestinal fluid (SIF) which were prepared following United States Pharmacopoeia, and stability was checked for upto 2 hours for SGF and 4 hours for SIF.

Series [14] deals with Leishmania donovani. The arrangement: method as in ref 11, 12 = [11]; PMID 11937327; doi:10.1016/s0968-0896(02)00046-9; 11 Sahu NP Pal C Mandal NB Banerjee S Raha M Kundu AP Synthesis of a novel quinoline derivative, 2-(2-Methylquinolin-4ylamino)-N-phenylacetamide: A potential antileishmanial agent Bioorg Med Chem 2002 || [12]; 12 Sahu NP Mondal NB Banerjee S Raha R Chakraborti G Basu A Indian patent No. 191818 2004. The conditions noted are these: cited from earlier work.

Series [15] can be described thus: Parallel artificial membrane permeability assay (PAMPA). It is filed as in vitro ADME. As to the method:
Millipore acceptor and donor plate (Cat No: MAPB310 and MASSACCEPTOR) were used in the study. […] Incubation was carried out for 16 hours at room temperature in a water-saturated chamber to avoid evaporation from donor wells. […] To a 200 μl acceptor sample, a 100 μl donor solution was added, mixed properly, and this mixture was termed as “equilibrium.” The absorbance of the equilibrium was also determined. Five standard compounds of different permeability (high: […] (1) Calculation: […] where C = (VD × VA)/[(VD + VA)× Area (cm^2) × porosity × time (seconds)] Where VD = volume of donor (ml), VA = volume of acceptor (ml). A linear graph was plotted with observed and reported values for the standard drugs. The experimental method was considered valid for permeability ranking if linear correlation coefficient (R^2) was more than 0.95.

[16] abbreviates: simulated gastric fluid (SGF), 37°C, 2 hours.
[17] abbreviates: simulated intestinal fluid (SIF), 37°C, 4 hours.

The structures appear in SMILES notation. In brackets after ≈: the same amount, converted by molar mass. Several values for one entry are separate records, joined by “and”; a condition that tells them apart may be missing. Equal entries are not always repeated. Structures can show the parent of a compound that is named as a salt.

For the molecule `O=C(Nc1ccccc1Cc1nc2ccccc2cc1-c1c[nH]c2ccccc12)C(Cl)Cl` [2-(2′′-dichloroacetamidobenzyl)-3-(3′-indoyl)-quinoline], the Antileishmanial activity entry in series [1] is listed as “significant antileishmanial activity”.

For `Cn1c(=O)c2c(ncn2C)n(C)c1=O` [Caffeine], the fraction unbound (in general, the share of the substance not bound to proteins or other matrix) at 6 h, 10 μM in [2] was 0.593. In addition, the “Percentage of plasma protein binding, reported value” (“Percentage of plasma protein binding” below) in series [3] is on record as 29-43%.

Take `O=C(O)Cc1ccccc1Nc1c(Cl)cccc1Cl` [Diclofenac Sodium]: in series [4], the solubility (usually how much of the substance goes into solution per volume) at 2 h was over 400 µM. For the same molecule, the “Solubility, reported value” in [5] was over 400 µM.

With `CC/C(=C(/CC)c1ccc(O)cc1)c1ccc(O)cc1` [Diethylstilbesterol], the Solubility (as a rule, the dissolved amount per volume that the medium holds) in [4] (pH 7.4) was 18.94 ± 1.00 µM (≈ 5.08 µg/mL). For the same molecule, in series [5], the “Solubility, reported value” is 5 to 20 µM.

As for `O=C(CCCN1CCC(O)(c2ccc(Cl)cc2)CC1)c1ccc(F)cc1` [Haloperidol], in series [4], the concentration in solution (solubility at 2 h) was 48.5 ± 3.21 µM (≈ 18.2 µg/mL). In addition, the logD hydrocarbon water in [6] (cyclohexane/PBS) came to 0.52. The “Solubility, reported value” in series [5] is 40 to 63 µM. Also, the “Log D cyclohexane/PBS, reported value” in series [7] is on record as 0.46.

`CN(Cc1cnc2nc(N)nc(N)c2n1)c1ccc(C(=O)N[C@@H](CCC(=O)O)C(=O)O)cc1` [Methotrexate]: the fraction unbound at 6 h, 10 μM in [2] was 0.493. In addition, the “Percentage of plasma protein binding” value in series [3] is 35-57%. The “Permeability ranking of standard compounds” value in series [8] is given as “very low”.

Turning to `COCCc1ccc(OCC(O)CNC(C)C)cc1` (centres unmarked) [Metoprolol tartrate], in series [9], the logD – broadly, lipophilicity at a set pH, counting ionised and neutral species – was -0.25. For the same molecule, the “Log D octanol/PBS, reported value” in series [10] was −0.30.

For `CC(C)NCC(O)COc1cccc2ccccc12.Cl` (centres unmarked) [Propranolol HCl], in series [3], the “Percentage of plasma protein binding” value is 80-93%. In addition, the “Permeability ranking of standard compounds” value in series [8] was “high”.

For the molecule `CNC(=C[N+](=O)[O-])NCCSCc1ccc(CN(C)C)o1` [Ranitidine HCl], the fraction unbound at 6 h, 10 μM in series [2] (plasma) is 0.852. Moreover, the “Percentage of plasma protein binding” value in [3] is reported as 10-19%.

In series [2], `Cc1cc(NCC(=O)Nc2ccccc2)c2ccccc2n1` [S-4, 2-(2-methylquinolin-4-ylamino)-N-phenylacetamide] had a fraction unbound at 6 h, 10 μM of 0.212. Also, the “Toxicity to different organs” value in [11] was “no alarming sign to different organs tested”. In series [4] (PBS), this molecule returned a solubility at 2 h of 300 ± 6.42 µM (≈ 87.3 µg/mL). The same molecule came in with a logD hydrocarbon water in series [6] (cyclohexane/PBS) of -1.33. In series [9], this molecule came in with a logD of 0.54. Also, the “% Parent compound remaining, result” value in series [12] is 36.07% and 36.07 ± 4.15%. In addition, the “Stability (% remaining)” value in [13] (100 μM in PBS pH 7.4, 25°C, 24 hours, HPLC) is given as 99.16 ± 1.32%; in series [13] (setting [16]) it was 101.19± 0.76%; in series [13] (setting [17]), 97.70 ± 0.15%. Further, the share remaining – broadly, what is left of the initial amount, in per cent – at 24 h, 100 μM in series [13] (phosphate buffered saline, pH 7.4, 100 μM in PBS pH 7.4, 25°C, 24 hours, HPLC) is over 95%. The same molecule gave a share remaining at 2 h, 100 μM in series [13] (setting [16]) of over 95%. This molecule yielded a share remaining at 4 h, 100 μM in [13] (setting [17]) of over 95%. Also, the “Reduction of parasite burden in spleen and liver compared with sodium antimony gluconate” value in series [14] is given as “significantly more effective than sodium antimony gluconate”. In addition, in [15] (PBS pH 7.4 (5% DMSO), 16 hours, room temperature, ± SEM, read-out: Log Pe (converted)), the Papp at 16 h, 250 μM was 2.95 ×10⁻⁶ cm/s. Also, the Permeability ranking result in [15] (ranking against standard drugs) is recorded as “medium”.

As for `CC(=O)CC(c1ccccc1)c1c(O)c2ccccc2oc1=O` (centres unmarked) [Warfarin], the fraction unbound at 6 h, 10 μM in series [2] (plasma) was 0.0179. Moreover, in series [3], the “Percentage of plasma protein binding” value is 99%. Further, in series [6], the logD hydrocarbon water is -1.28. Besides, the “Permeability ranking of standard compounds” value in series [8] is “medium”. Also, the “Log D cyclohexane/PBS, reported value” in series [7] was −1.31.

Consider `NC(=O)N1c2ccccc2C=Cc2ccccc21` [carbamazepine], for which the “Permeability ranking of standard compounds” value in [8] is reported as “high”.
